Experimental data as given in patent publication US20260062422A1 (Halda Therapeutics OpCo, Inc., priority 2022, published 2026).

Tests used:
[1] = system: T-Rex 293 cell line SC cells having increased expression of progesterone receptor isoform B protein due to exposure to doxycycline; assay: Cellular growth inhibition, T-Rex 293 SC cells with doxycycline (progesterone receptor isoform B induced), Example 47; format: cell-based; conditions: progesterone receptor isoform B induced with 10 ng/mL doxycycline, 72 hours, CellTiter-Glo 2.0, Table 14 (Example 47)
Protocol: The following types of cells were prepared for this experiment: (i) a T-Rex 293 cell line having increased expression of progesterone receptor isoform B protein due to exposure to doxycycline and (ii) a T-Rex 293 cell line lacking increased expression of progesterone receptor isoform B protein. Ability of the test compounds to inhibit proliferation of the foregoing cell types was evaluated according to the procedures set forth below.
The doxycycline-inducible progesterone receptor isoform B protein expressing cell line was established using the following protocol: T-Rex 293 cells were purchased from Invitrogen (Cat #R71007) and transfected using Lipofectamine 2000 with the wild-type progesterone receptor B protein sequence cloned into the pcDNA4/TO vector. Transfected cells were selected using 400 μg/mL Zeocin (Invitrogen Cat #R25001). Following selection, single clones were raised and maintained in Dulbecco's Modified Eagle Medium (DMEM) supplemented with 10% w/w Tetracycline-free fetal bovine serum (FBS) and 250 μg/mL Zeocin. Clones were analyzed for expression of progesterone receptor isoform B protein in the presence and absence of 10 ng/mL doxycycline (Sigma Cat #D9891), and a single doxycycline-inducible clone (hereinafter “SC”) was selected for use in downstream assays.
The SC cells were seeded on poly-D-lysine coated, black clear-bottom 384-well plates at 2500/well, in 25 μL Phenol Red Free Dulbecco's Modified Eagle Medium (DMEM) supplemented with 10% w/w charcoal-dextran treated fetal bovine serum (FBS) and 1% w/w pen-strep, with or without 10 ng/mL doxycycline. Pen-Strep is a commercially available mixture of penicillin G and streptomycin, which is used in mammalian cell culture media to prevent bacterial contamination. Phenol Red Free Dulbecco's Modified Eagle Medium (DMEM) supplemented with 10% w/w charcoal-dextran treated fetal bovine serum (FBS) and 1% w/w pen-strep, with or without 10 ng/mL doxycycline is herein referred to as Treatment Medium. Following seeding of cells in the plates, the plates were spun at 300×g for 30 seconds, then equilibrated to room temperature for 30 minutes, and then deposited in a humidified tissue culture incubator maintained at 37° C. with 5% CO2.
At 24 hours after seeding of the cells, dilutions of test compound were prepared in DMSO and dissolved in Treatment Medium, to achieve a final DMSO concentration of 0.5% w/w, thereby providing the Test Compound Solution. A 25 μL aliquot of the Test Compound Solution was added to cells in the well plates. An equal volume of a solution containing DMSO and Treatment Medium was used as a negative control. Following treatment of cells with Test Compound Solution or said equal volume of a solution containing DMSO and Treatment Medium, the plates were spun at 300×g for 30 seconds, and then left in an incubator for 72 hours.
At the end of the treatment duration, cell viability was quantified with CellTiter-Glo 2.0 reagent (Promega Cat #G9243). For this purpose, plates were equilibrated to room temperature for 30 minutes, and then 25 μL of CellTiter-Glo 2.0 reagent was added to cells in the plate wells. Plates were then agitated on a shaker for two minutes at 500 rpm and subsequently incubated at room temperature for 10 minutes. Following incubation, the plates were spun at 3000×g for 30 seconds, then sealed with an optical adhesive cover, and luminescence readings were measured with an EnVision Plate Reader (Perkin Elmer).
Data was normalized using zero luminescence for baseline. A four-parameter non-linear regression curve fit was applied to dose-response data in GraphPad Prism data analysis software to determine the half-maximal growth inhibitory concentration (GI50) for each test compound.

[2] = system: 22RV1 cells overexpressing FL-AR (22RV1 Parental(FL-AR^hi)); assay: 22RV1 apoptosis assay (Caspase-Glo 3/7), cells overexpressing FL-AR; format: cell-based; conditions: Caspase 3/7 Glo assay
Protocol: 22RV1 Parental and 22RV1/AR cells were seeded in 25 μL growth media in poly-d lysine coated black clear-bottom 384-well plates at 5000 cells/well with Phenol Red Free RPMI containing 10% charcoal stripped serum and 1% PenStrep. Following seeding, plates were spun at 300×g for 30 seconds, then equilibrated to room temperature for 30 minutes, and moved into the incubator. 24 hours after seeding, compounds were titrated in 100% DMSO and diluted in growth medium. 25 μL of the compound/medium mixture was added to cells, bringing the total volume in each well to 50 μL. DMSO was used as a negative control.
After treatment, plates were spun at 300×g for 30 seconds, then cultured at 37° C. with 5% CO2 for 24 or 48 hours in a humidified tissue culture incubator. After 24 or 48 hours of treatment, Caspase 3/7 activity was quantified with Caspase-Glo 3/7 reagent (Promega). Plates were equilibrated to room temperature for 30 minutes, then 25 μL of Caspase-Glo 3/7 reagent was added to cells, bringing the total volume in each well to 75 μL. After reagent was added, plates were spun at 300×g for 30 seconds then mixed on a shaker for two minutes at 500 rpm and then incubated in the dark at room temperature for one hour. Following incubation, plates were spun at 300×g for 30 seconds, sealed with an optical adhesive cover, and luminescence reads were measured with an EnVision Plate Reader. […]

| SMILES | GI50 [1] | apoptosis in 22RV1 FL-AR^hi cells as compared to parental 22RV1 FL-AR^low cells [2] | EC50 ([2]; Homo sapiens, 22RV1 cells overexpressing FL-AR (FL-AR^hi), 24 or 48 hours) |
| --- | --- | --- | --- |
| Cc1sc2c(c1C)C(c1ccc(Cl)cc1)=N[C@@H](CC(=O)NCCCCCOC1CCN(c3ncc(C(=O)N[C@H]4C(C)(C)[C@H](Oc5ccc(C#N)c(Cl)c5)C4(C)C)cn3)CC1)c1nnc(C)n1-2 [Compound I-22, N-((1r,3r)-3-(3-chloro-4-cyanophenoxy)-2,2,4,4-tetramethylcyclobutyl)-2-(4-((5-(2-((S)-4-(4-chlorophenyl)-2,3,9-trimethyl-6H-thieno[3,2-A][1,2,4]triazolo[4,3-a][1,4]diazepin-6-yl)acetamido)pentyl)oxy)piperidin-1-yl)pyrimidine-5-carboxamide] | > 3 µM | – | – |
| Cc1sc2c(c1C)C(c1ccc(OC3CC4(CCN(c5ncc(C(=O)N[C@H]6C(C)(C)[C@H](Oc7ccc(C#N)c(Cl)c7)C6(C)C)cn5)CC4)C3)cc1)=N[C@@H](Cc1ncco1)c1nnc(C)n1-2 [Compound I-49, N-[3-(3-chloro-4-cyano-phenoxy)-2,2,4,4-tetramethyl-cyclobutyl]-2-[2-[4-[(9S)-4,5,13-trimethyl-9-(oxazol-2-ylmethyl)-3-thia-1,8,11,12-tetrazatricyclo[8.3.0.02,6]trideca-2(6),4,7,10,12-pentaen-7-yl]phenoxy]-7-azaspiro[3.5]nonan-7-yl]pyrimidine-5-carboxamide] | – | highly apoptotic | 0.126 µM |
